The target in one test is CDK12/CycK complex (Homo sapiens, UniProt Q9NYV4). Briefly: Measurement of CDK12 inhibitory activity by binding assay (BODIPY-FL labeled AT-7519 high concentration conditions, 1320 nM). The note with it: inhibitory rate against CDK12 at 1 μM test compound, 1320 nM BODIPY-FL-labeled AT-7519, 8 nM CDK12/CycK. The protocol: (4) Measurement of CDK12 Inhibitory Activity by Binding Assay (BODIPY-FL Labeled AT-7519 High Concentration Conditions)
His-tagged CDK12/CycK complex was blended with a binding assay buffer supplemented with BODIPY-FL labeled AT-7519, terbium-labeled streptavidin and biotin-labeled anti-histidine antibody. This solution was added to an assay plate containing a test compound dispensed therein, and the mixture was left standing for 120 min at room temperature. The final concentration of CDK12/CycK complex, BODIPY-FL-labeled AT-7519, terbium-labeled streptavidin and biotin-labeled anti-histidine antibody was set to 8 nM, 1320 nM, 0.2 nM, and 0.4 nM, respectively. The fluorescence intensity derived from terbium and BODIPY-FL was measured using Envision. The signal value of each well was determined using the TR-FRET ratio calculated by the following formula. TR-FRET ratio=(fluorescence value of BODIPY-FL)÷(fluorescence value of terbium)
The inhibitory rate (%) of the test compound against CDK12 was calculated by the following formula. Inhibitory rate (%)=(1−(TR-FRET ratio of test compound−blank)÷(control−blank))×100
The TR-FRET ratio of the CDK12 enzyme reaction mixture under compound non-addition conditions is indicated as control, and the TR-FRET ratio under 30 μM AT-7519 addition conditions is indicated as blank.
The inhibitory rate of the test compound against CDK12 at 1 μM is shown below.

Another test deals with A2780 cells. Nature of the test: In vitro proliferation suppression test (CellTiter-Glo). The format is cell-based, human. The following applies: A2780 cell proliferation inhibitory rate at 1 μM test compound, three days; for inhibition at 1 µM: Homo sapiens, 72 h. The method, then:
Experimental Example 4: In Vitro Proliferation Suppression Test
The proliferation suppressive activity of compound in A2780 cells was evaluated by the following method.
A2780 cells were seeded in a 384-well white plate at a cell density of 1,000 cells/40 μL/well or a 96-well white plate at a cell density of 1,000 cells/90 μL/well using an assay medium (RPMI1640 medium containing 10% fetal bovine serum (FUJIFILM Wako Pure Chemical Corporation)) and incubated at 37° C. in 5% CO2.
The next day, a test compound dissolved in dimethyl sulfoxide (DMSO) was diluted with an assay medium, the obtained compound solution was added by 40 μL/well or 10 μL/well to each well of the plate containing A2780 cells and the mixture was incubated (test compound addition group). In addition, a similar reaction was performed without adding the test compound (test compound non-addition group).
Three days later, 80 μL or 100 μL of CellTiter-Glo reagent (Promega) was added, and the mixture was stirred for 10 min. Thereafter, the luminescence of each well was measured by ARVO-MX multilabel counter (Perkin Elmer Inc.).
The proliferation inhibitory rate (%) of each test compound against A2780 cells was calculated by the following calculation formula. Proliferation inhibitory rate (%)=(1−luminescence of test compound addition group÷luminescence of test compound non-addition group)×100
The A2780 cell proliferation inhibitory rate (%) of 1 μM test compound is shown below.
On the technique in general: In ATP-based viability assays light output follows the ATP content of the culture.

Sequence of CDK12/CycK complex (Q9NYV4 whole entry, species assumed): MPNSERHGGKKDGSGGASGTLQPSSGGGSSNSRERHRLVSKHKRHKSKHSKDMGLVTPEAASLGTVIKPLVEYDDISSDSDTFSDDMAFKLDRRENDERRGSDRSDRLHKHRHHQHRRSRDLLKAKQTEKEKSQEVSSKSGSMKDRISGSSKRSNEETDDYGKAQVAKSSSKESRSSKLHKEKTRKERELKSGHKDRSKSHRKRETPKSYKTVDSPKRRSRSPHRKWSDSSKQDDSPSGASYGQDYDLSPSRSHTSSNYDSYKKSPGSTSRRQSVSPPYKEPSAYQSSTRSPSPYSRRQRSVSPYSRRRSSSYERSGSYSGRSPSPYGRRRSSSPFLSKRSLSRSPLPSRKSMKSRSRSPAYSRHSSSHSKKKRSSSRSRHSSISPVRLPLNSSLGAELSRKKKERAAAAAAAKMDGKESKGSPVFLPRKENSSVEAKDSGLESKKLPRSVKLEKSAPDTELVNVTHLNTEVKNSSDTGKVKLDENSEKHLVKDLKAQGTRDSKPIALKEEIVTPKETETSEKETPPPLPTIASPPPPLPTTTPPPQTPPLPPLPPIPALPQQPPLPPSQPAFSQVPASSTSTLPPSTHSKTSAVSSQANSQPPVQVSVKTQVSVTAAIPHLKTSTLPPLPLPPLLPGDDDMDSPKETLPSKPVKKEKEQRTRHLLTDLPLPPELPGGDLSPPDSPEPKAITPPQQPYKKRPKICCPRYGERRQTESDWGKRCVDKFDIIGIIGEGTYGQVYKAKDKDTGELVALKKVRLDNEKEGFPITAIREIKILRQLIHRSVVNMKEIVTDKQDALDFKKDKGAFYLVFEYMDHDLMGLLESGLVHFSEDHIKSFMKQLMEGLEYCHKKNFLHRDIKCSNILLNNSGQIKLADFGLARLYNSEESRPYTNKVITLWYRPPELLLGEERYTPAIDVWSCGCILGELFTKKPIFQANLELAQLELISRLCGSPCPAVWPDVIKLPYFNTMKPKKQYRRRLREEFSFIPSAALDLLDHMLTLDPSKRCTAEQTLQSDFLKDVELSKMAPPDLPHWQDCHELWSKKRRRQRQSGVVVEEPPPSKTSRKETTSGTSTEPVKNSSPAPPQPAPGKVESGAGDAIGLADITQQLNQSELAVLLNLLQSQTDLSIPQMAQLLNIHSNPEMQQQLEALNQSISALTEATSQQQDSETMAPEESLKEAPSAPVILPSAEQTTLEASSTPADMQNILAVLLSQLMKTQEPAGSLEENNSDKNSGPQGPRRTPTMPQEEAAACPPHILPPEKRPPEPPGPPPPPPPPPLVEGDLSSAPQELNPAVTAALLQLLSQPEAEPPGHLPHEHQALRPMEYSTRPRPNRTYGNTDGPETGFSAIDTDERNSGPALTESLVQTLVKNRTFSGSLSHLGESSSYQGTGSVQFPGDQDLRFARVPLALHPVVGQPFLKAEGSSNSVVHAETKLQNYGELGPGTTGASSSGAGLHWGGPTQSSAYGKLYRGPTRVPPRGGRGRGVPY
Sequence of CDK12/CycK complex (O75909 whole entry partner, species assumed): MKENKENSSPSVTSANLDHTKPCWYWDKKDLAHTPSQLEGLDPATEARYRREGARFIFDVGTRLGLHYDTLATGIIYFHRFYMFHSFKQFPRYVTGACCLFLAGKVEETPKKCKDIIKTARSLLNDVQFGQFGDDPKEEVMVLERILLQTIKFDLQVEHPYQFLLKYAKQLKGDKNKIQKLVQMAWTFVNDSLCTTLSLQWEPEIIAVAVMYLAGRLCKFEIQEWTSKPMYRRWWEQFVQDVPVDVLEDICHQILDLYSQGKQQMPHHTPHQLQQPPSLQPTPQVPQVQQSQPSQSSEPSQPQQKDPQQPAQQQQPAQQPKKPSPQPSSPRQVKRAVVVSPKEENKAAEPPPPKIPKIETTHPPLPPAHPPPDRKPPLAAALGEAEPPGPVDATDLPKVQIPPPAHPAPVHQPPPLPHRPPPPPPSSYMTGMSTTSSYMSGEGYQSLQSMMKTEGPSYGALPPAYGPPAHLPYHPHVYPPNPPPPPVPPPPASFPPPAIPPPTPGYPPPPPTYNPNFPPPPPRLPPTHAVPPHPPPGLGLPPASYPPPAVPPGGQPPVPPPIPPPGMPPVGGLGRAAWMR

Usually inhibition stands for the change of the read-out against control, counted positive when it falls. On to `COc1ncc(-c2cnc(N(C(=O)OCC(C)(C)O)[C@H]3CC[C@H](Nc4ncc(C(F)(F)F)c(-c5cncc(S(C)(=O)=O)c5)n4)CC3)cn2)cn1` [Example 836, 2-hydroxy-2-methylpropyl (trans-4-((4-(5-(methanesulfonyl)pyridin-3-yl)-5-(trifluoromethyl)pyrimidin-2-yl)amino)cyclohexyl) (5-(2-methoxypyrimidin-5-yl)pyrazin-2-yl)carbamate], for which the results for the inhibition at 1 µM on CDK12/CycK complex and in the test on A2780 cells were 106% and 99%, respectively.
In the same order, the values of `COc1ncc(-c2cnc(N(C(=O)OCC(F)F)[C@H]3CC[C@H](Nc4ncc(C(F)(F)F)c(-c5cncc(S(C)(=O)=O)c5)n4)CC3)cn2)cn1` [Example 766, 2,2-difluoroethyl (trans-4-((4-(5-(methanesulfonyl)pyridin-3-yl)-5-(trifluoromethyl)pyrimidin-2-yl)amino)cyclohexyl) (5-(2-methoxypyrimidin-5-yl)pyrazin-2-yl)carbamate] are 96% and 99%.
In the same order, the values of `COc1ncc(-c2cnc(N(C(=O)OCCN(C)C)[C@H]3CC[C@H](Nc4ncc(C(F)(F)F)c(-c5cncc(S(C)(=O)=O)c5)n4)CC3)cn2)cn1` [Example 767, 2-(dimethylamino)ethyl (trans-4-((4-(5-(methanesulfonyl)pyridin-3-yl)-5-(trifluoromethyl)pyrimidin-2-yl)amino)cyclohexyl) (5-(2-methoxypyrimidin-5-yl)pyrazin-2-yl)carbamate] are 102% and 99%.
Regarding `CCOCC(=O)N(c1cnc(-c2cnn(C)c2)cn1)[C@H]1CC[C@H](Nc2ncc(C(F)(F)F)c(-c3cncc(S(C)(=O)=O)c3)n2)CC1` [Example 831, 2-ethoxy-N-(trans-4-((4-(5-(methanesulfonyl)pyridin-3-yl)-5-(trifluoromethyl)pyrimidin-2-yl)amino)cyclohexyl)-N-(5-(1-methyl-1H-pyrazol-4-yl)pyrazin-2-yl)acetamide], the values for the inhibition at 1 µM at CDK12/CycK complex and in the test on A2780 cells were 107% and 99%, respectively.
`COc1ncc(-c2cnc(N(C(=O)NCC(C)(C)O)[C@H]3CC[C@H](Nc4ncc(C(F)(F)F)c(-c5ccn(C(F)F)n5)n4)CC3)cn2)cn1` [Example 804, 1-(trans-4-((4-(1-(difluoromethyl)-1H-pyrazol-3-yl)-5-(trifluoromethyl)pyrimidin-2-yl)amino)cyclohexyl)-3-(2-hydroxy-2-methylpropyl)-1-(5-(2-methoxypyrimidin-5-yl)pyrazin-2-yl)urea]: the inhibition at 1 µM is 94% at CDK12/CycK complex and 96% with A2780 cells.
The matching figures for `COc1ncc(-c2ccc(N(C(=O)NCC(F)F)[C@H]3CC[C@H](Nc4ncc(C(F)(F)F)c(-c5n[nH]cc5Cl)n4)CC3)nc2)cn1` [Example 693, 1-(trans-4-((4-(4-chloro-1H-pyrazol-3-yl)-5-(trifluoromethyl)pyrimidin-2-yl)amino)cyclohexyl)-3-(2,2-difluoroethyl)-1-(5-(2-methoxypyrimidin-5-yl)pyridin-2-yl)urea]: 100% and 98%.
The matching figures for `COc1ncc(-c2cnc(N(C(=O)NCC(C)(F)F)[C@H]3CC[C@H](Nc4ncc(C(F)(F)F)c(-c5n[nH]cc5Cl)n4)CC3)cn2)cn1` [Example 740, 1-(trans-4-((4-(4-chloro-1H-pyrazol-3-yl)-5-(trifluoromethyl)pyrimidin-2-yl)amino)cyclohexyl)-3-(2,2-difluoropropyl)-1-(5-(2-methoxypyrimidin-5-yl)pyrazin-2-yl)urea]: 86% and 96%.
In the same order, the values of `CCOCC(=O)N(c1cnc(-c2cnc(OC)nc2)cn1)[C@H]1CC[C@H](Nc2ncc(C(F)(F)F)c(-c3cncc(S(C)(=O)=O)c3)n2)CC1` [Example 827, 2-ethoxy-N-(trans-4-((4-(5-(methanesulfonyl)pyridin-3-yl)-5-(trifluoromethyl)pyrimidin-2-yl)amino)cyclohexyl)-N-(5-(2-methoxypyrimidin-5-yl)pyrazin-2-yl)acetamide] are 109% and 99%.
On to `CCCC(=O)N(c1ccc(-c2cnc(OC)nc2)cn1)[C@H]1CC[C@H](Nc2ncc(C(F)(F)F)c(-c3cncc(S(C)(=O)=O)c3)n2)CC1` [Example 858, N-(trans-4-((4-(5-(methanesulfonyl)pyridin-3-yl)-5-(trifluoromethyl)pyrimidin-2-yl)amino)cyclohexyl)-N-(5-(2-methoxypyrimidin-5-yl)pyridin-2-yl)butanamide], for which the inhibition at 1 µM at CDK12/CycK complex came out at 109%; with A2780 cells, 99%.
In the case of `COc1ncc(-c2cnc(N(C(=O)NCC(F)F)[C@H]3CC[C@H](Nc4ncc(C(F)(F)F)c(-c5n[nH]cc5Cl)n4)CC3)cn2)cn1` [Example 744, 1-(trans-4-((4-(4-chloro-1H-pyrazol-3-yl)-5-(trifluoromethyl)pyrimidin-2-yl)amino)cyclohexyl)-3-(2,2-difluoroethyl)-1-(5-(2-methoxypyrimidin-5-yl)pyrazin-2-yl)urea], the inhibition at 1 µM was 92% on CDK12/CycK complex and 97% in the test on A2780 cells.
In the case of `Cn1cc(-c2cnc(N(C(=O)OCC(C)(C)O)[C@H]3CC[C@H](Nc4ncc(C(F)(F)F)c(-c5cncc(S(C)(=O)=O)c5)n4)CC3)cn2)cn1` [Example 838, 2-hydroxy-2-methylpropyl (trans-4-((4-(5-(methanesulfonyl)pyridin-3-yl)-5-(trifluoromethyl)pyrimidin-2-yl)amino)cyclohexyl) (5-(1-methyl-1H-pyrazol-4-yl)pyrazin-2-yl)carbamate], the figures for the inhibition at 1 µM at CDK12/CycK complex and with A2780 cells were 103% and 98%, respectively.
Consider `COc1ncc(-c2ccc(N(C(=O)OCCN(C)C)[C@H]3CC[C@H](Nc4ncc(C(F)(F)F)c(-c5cncc(S(C)(=O)=O)c5)n4)CC3)nc2)cn1` [Example 848, 2-(dimethylamino)ethyl (trans-4-((4-(5-(methanesulfonyl)pyridin-3-yl)-5-(trifluoromethyl)pyrimidin-2-yl)amino)cyclohexyl) (5-(2-methoxypyrimidin-5-yl)pyridin-2-yl)carbamate], for which the “1 μM inhibitory rate (%)” value turned out to be 108% at CDK12/CycK complex and 99% in the test with A2780 cells.
Turning to `CCCC(=O)N(c1cnc(-c2cnc(OC)nc2)cn1)[C@H]1CC[C@H](Nc2ncc(C(F)(F)F)c(-c3cncc(S(C)(=O)=O)c3)n2)CC1` [Example 798, N-(trans-4-((4-(5-(methanesulfonyl)pyridin-3-yl)-5-(trifluoromethyl)pyrimidin-2-yl)amino)cyclohexyl)-N-(5-(2-methoxypyrimidin-5-yl)pyrazin-2-yl)butanamide], the inhibition at 1 µM at CDK12/CycK complex was 92%; in the test on A2780 cells, 99%.
`Cn1cc(-c2cnc(N(C(=O)OCC(F)F)[C@H]3CC[C@H](Nc4ncc(C(F)(F)F)c(-c5cncc(S(C)(=O)=O)c5)n4)CC3)cn2)cn1` [Example 820, 2,2-difluoroethyl (trans-4-((4-(5-(methanesulfonyl)pyridin-3-yl)-5-(trifluoromethyl)pyrimidin-2-yl)amino)cyclohexyl) (5-(1-methyl-1H-pyrazol-4-yl)pyrazin-2-yl)carbamate]: the inhibition at 1 µM on CDK12/CycK complex and in the test on A2780 cells was 99% in each case.
As for `CCNC(=O)N(c1cnc(-c2cnn(C)c2)cn1)[C@H]1CC[C@H](Nc2ncc(C(F)(F)F)c(-c3ccn(C(F)F)n3)n2)CC1` [Example 764, 1-(trans-4-((4-(1-(difluoromethyl)-1H-pyrazol-3-yl)-5-(trifluoromethyl)pyrimidin-2-yl)amino)cyclohexyl)-3-ethyl-1-(5-(1-methyl-1H-pyrazol-4-yl)pyrazin-2-yl)urea], the inhibition at 1 µM on CDK12/CycK complex was 91%; in the test on A2780 cells, 95%.
Regarding `COc1ncc(-c2cnc(N(C(=O)NCC3(F)CC3)[C@H]3CC[C@H](Nc4ncc(C(F)(F)F)c(-c5n[nH]cc5Cl)n4)CC3)cn2)cn1` [Example 742, 1-(trans-4-((4-(4-chloro-1H-pyrazol-3-yl)-5-(trifluoromethyl)pyrimidin-2-yl)amino)cyclohexyl)-3-((1-fluorocyclopropyl)methyl)-1-(5-(2-methoxypyrimidin-5-yl)pyrazin-2-yl)urea], the inhibition at 1 µM is 87% on CDK12/CycK complex and 96% in the test with A2780 cells.

For the origin of these results see US11584737B2, “Heterocyclic compound” (TAKEDA PHARMACEUTICAL COMPANY LIMITED, priority 2018, dated 2023).
